# Data reported in PMC5218480 (PLoS ONE, 2017).
# Tested on: MV-4-11 cells
# Test: Gene expression microarray analysis (Affymetrix PrimeView) and GSEA
# Assay type: cell-based, human
# Set-up: RFU PODN (11730768_x_at) / Fold change /veh PODN (11730768_x_at) / RFU LINC00158 (11744669_a_at) / Fold change /veh LINC00158 (11744669_a_at) / RFU DUSP10 (11751237_a_at) / Fold change /veh DUSP10 (11751237_a_at) / RFU ID3 (11757404_x_at) / Fold change /veh ID3 (11757404_x_at) / RFU PLEKHG5 (11737974_s_at) / Fold change /veh PLEKHG5 (11737974_s_at) / RFU LRRC4B (11730491_at) / Fold change /veh LRRC4B (11730491_at) / RFU GIMAP4 (11747438_a_at) / Fold change /veh GIMAP4 (11747438_a_at) / RFU KRT8 (11758183_x_at) / Fold change /veh KRT8 (11758183_x_at) / RFU CNN1 (11734310_a_at) / Fold change /veh CNN1 (11734310_a_at) / RFU VPS37D (11726825_at) / Fold change /veh VPS37D (11726825_at) / RFU C10orf10 (11716522_x_at) / Fold change /veh C10orf10 (11716522_x_at) / RFU KIR2DL2 /// KIR2DL4 /// KIR2DL5A /// KIR2DL5B /// KIR2DS1 /// KIR2DS2 /// KIR2DS3 /// KIR2DS4 /// KIR3DL3 /// KIR3DL3 /// KIR3DS1 (11738374_at) / Fold change /veh KIR2DL2 /// KIR2DL4 /// KIR2DL5A /// KIR2DL5B /// KIR2DS1 /// KIR2DS2 /// KIR2DS3 /// KIR2DS4 /// KIR3DL3 /// KIR3DL3 /// KIR3DS1 (11738374_at) / RFU C1QL1 (11718748_at) / Fold change /veh C1QL1 (11718748_at) / RFU TMPRSS4 (11747572_a_at) / Fold change /veh TMPRSS4 (11747572_a_at) / RFU HAMP (11756126_x_at) / Fold change /veh HAMP (11756126_x_at) / RFU RNFT2 (11725882_a_at) / Fold change /veh RNFT2 (11725882_a_at) / RFU NR4A2 (11747474_a_at) / Fold change /veh NR4A2 (11747474_a_at) / RFU ABCC12 (11746883_a_at) / Fold change /veh ABCC12 (11746883_a_at) / RFU TMEM136 (11760407_x_at) / Fold change /veh TMEM136 (11760407_x_at) / RFU CLDN22 /// WWC2 (11732394_at) / Fold change /veh CLDN22 /// WWC2 (11732394_at) / RFU HLA-DPB1 (11760878_x_at) / Fold change /veh HLA-DPB1 (11760878_x_at) / RFU SPINT1 (11716480_a_at) / Fold change /veh SPINT1 (11716480_a_at) / RFU GAP43 (11754022_s_at) / Fold change /veh GAP43 (11754022_s_at) / RFU A4GNT (11735810_at) / Fold change /veh A4GNT (11735810_at) / RFU PRB3 (11715151_x_at) / Fold change /veh PRB3 (11715151_x_at) / RFU TUBB4B (11761932_at) / Fold change /veh TUBB4B (11761932_at) / RFU CAPN14 (11732068_a_at) / Fold change /veh CAPN14 (11732068_a_at) / RFU TMCC2 (11721928_a_at) / Fold change /veh TMCC2 (11721928_a_at) / RFU IRGQ (11745062_a_at) / Fold change /veh IRGQ (11745062_a_at) / RFU FAM174B (11720279_a_at) / Fold change /veh FAM174B (11720279_a_at) / RFU TMPRSS4 (11748680_a_at) / Fold change /veh TMPRSS4 (11748680_a_at) / RFU FAM212B (11763350_a_at) / Fold change /veh FAM212B (11763350_a_at) / RFU PLEKHG5 (11743358_a_at) / Fold change /veh PLEKHG5 (11743358_a_at) / RFU ZSCAN30 (11745921_a_at) / Fold change /veh ZSCAN30 (11745921_a_at) / RFU CMKLR1 (11741424_a_at) / Fold change /veh CMKLR1 (11741424_a_at) / RFU LOC101060620 /// MAPK8IP1 (11723275_at) / Fold change /veh LOC101060620 /// MAPK8IP1 (11723275_at) / RFU SPTSSB (11747773_x_at) / Fold change /veh SPTSSB (11747773_x_at) / RFU PRSS12 (11739890_at) / Fold change /veh PRSS12 (11739890_at) / RFU BIN1 (11741810_x_at) / Fold change /veh BIN1 (11741810_x_at) / RFU WNT11 (11732464_a_at) / Fold change /veh WNT11 (11732464_a_at) / RFU C10orf10 (11716521_a_at) / Fold change /veh C10orf10 (11716521_a_at) / RFU C5orf56 (11738089_at) / Fold change /veh C5orf56 (11738089_at) / RFU CYB561 (11721691_x_at) / Fold change /veh CYB561 (11721691_x_at) / RFU ANKRD19P (11752326_a_at) / Fold change /veh ANKRD19P (11752326_a_at) / RFU OR2T12 /// OR2T33 /// OR2T8 (11738714_s_at) / Fold change /veh OR2T12 /// OR2T33 /// OR2T8 (11738714_s_at) / RFU VCAN (11748164_a_at) / Fold change /veh VCAN (11748164_a_at) / RFU JSRP1 (11732532_at) / Fold change /veh JSRP1 (11732532_at) / RFU KRTAP10-11 (11738290_x_at) / Fold change /veh KRTAP10-11 (11738290_x_at) / RFU MYO3A (11730013_a_at) / Fold change /veh MYO3A (11730013_a_at) / RFU EBF3 (11725865_a_at) / Fold change /veh EBF3 (11725865_a_at) / RFU CAMK2N1 (11719241_x_at) / Fold change /veh CAMK2N1 (11719241_x_at) / RFU C5orf56 (11738088_a_at) / Fold change /veh C5orf56 (11738088_a_at) / RFU OLFML3 (11715873_a_at) / Fold change /veh OLFML3 (11715873_a_at) / RFU LOC100653217 /// NTM (11731650_a_at) / Fold change /veh LOC100653217 /// NTM (11731650_a_at) / RFU MAPK11 (11762145_a_at) / Fold change /veh MAPK11 (11762145_a_at) / RFU FIZ1 (11724087_x_at) / Fold change /veh FIZ1 (11724087_x_at) / RFU OASL (11726364_x_at) / Fold change /veh OASL (11726364_x_at) / RFU SOX15 (11748057_x_at) / Fold change /veh SOX15 (11748057_x_at) / RFU CD79A (11719716_a_at) / Fold change /veh CD79A (11719716_a_at) / RFU HIST1H1D (11736915_at) / Fold change /veh HIST1H1D (11736915_at) / RFU CASKIN2 (11723855_a_at) / Fold change /veh CASKIN2 (11723855_a_at) / RFU LOC730098 (11760151_x_at) / Fold change /veh LOC730098 (11760151_x_at) / RFU OR4N2 (11742367_at) / Fold change /veh OR4N2 (11742367_at) / RFU PRRT2 (11749266_a_at) / Fold change /veh PRRT2 (11749266_a_at) / RFU SNX32 (11753110_a_at) / Fold change /veh SNX32 (11753110_a_at) / RFU CDHR5 (11726645_a_at) / Fold change /veh CDHR5 (11726645_a_at) / RFU RCAN1 (11760418_a_at) / Fold change /veh RCAN1 (11760418_a_at) / RFU FAM167A (11723789_a_at) / Fold change /veh FAM167A (11723789_a_at) / RFU FAM26E (11764081_at) / Fold change /veh FAM26E (11764081_at) / RFU ISYNA1 (11749810_s_at) / Fold change /veh ISYNA1 (11749810_s_at) / RFU ACY1 (11761880_at) / Fold change /veh ACY1 (11761880_at) / RFU 11764098_at / Fold change /veh 11764098_at / RFU SAMD14 (11745864_x_at) / Fold change /veh SAMD14 (11745864_x_at) / RFU NPB (11741838_a_at) / Fold change /veh NPB (11741838_a_at) / RFU TMPRSS6 (11731388_a_at) / Fold change /veh TMPRSS6 (11731388_a_at) / RFU KRTAP10-2 (11738614_at) / Fold change /veh KRTAP10-2 (11738614_at) / RFU ARHGAP8 /// PRR5-ARHGAP8 (11727945_x_at) / Fold change /veh ARHGAP8 /// PRR5-ARHGAP8 (11727945_x_at) / RFU KRTAP5-7 /// NADSYN1 (11734609_at) / Fold change /veh KRTAP5-7 /// NADSYN1 (11734609_at) / RFU RASL12 (11751679_a_at) / Fold change /veh RASL12 (11751679_a_at) / RFU CDKN2B (11736163_a_at) / Fold change /veh CDKN2B (11736163_a_at) / RFU PRF1 (11729649_at) / Fold change /veh PRF1 (11729649_at) / RFU, ZNF638 /// ZNF638-IT1 / Fold change vs veh, ZNF638 /// ZNF638-IT1 / RFU, PANK3 / Fold change vs veh, PANK3 / RFU, SH3YL1 / Fold change vs veh, SH3YL1 / RFU, ZEB2 / Fold change vs veh, ZEB2 / RFU, NRIP1 / Fold change vs veh, NRIP1 / RFU, PTTG1IP / Fold change vs veh, PTTG1IP / RFU, CAPN2 / Fold change vs veh, CAPN2 / RFU, MED14 / Fold change vs veh, MED14 / RFU, SNORA58 / Fold change vs veh, SNORA58 / RFU, C1orf63 / Fold change vs veh, C1orf63 / RFU, LRRFIP1 / Fold change vs veh, LRRFIP1 / RFU, NDUFAF7 / Fold change vs veh, NDUFAF7 / RFU, SLC12A2 / Fold change vs veh, SLC12A2 / RFU, IBTK / Fold change vs veh, IBTK / RFU, ESF1 / Fold change vs veh, ESF1 / Fold change vs veh, TMEM50B / RFU, TAOK1 / Fold change vs veh, TAOK1 / RFU, ACBD3 / Fold change vs veh, ACBD3 / RFU, TMA16 / Fold change vs veh, TMA16 / RFU, RWDD3 / Fold change vs veh, RWDD3 / RFU, BCAT1 / Fold change vs veh, BCAT1 / RFU, EDEM3 / Fold change vs veh, EDEM3 / RFU, TMEM33 / Fold change vs veh, TMEM33 / RFU, WDR75 / Fold change vs veh, WDR75 / RFU, AHCTF1 / Fold change vs veh, AHCTF1 / RFU, TFRC / Fold change vs veh, TFRC / RFU, ZDHHC17 / Fold change vs veh, ZDHHC17 / RFU, NOM1 / Fold change vs veh, NOM1 / RFU, ARL8B / Fold change vs veh, ARL8B / RFU, ZBTB11 / Fold change vs veh, ZBTB11 / RFU, TAMM41 / Fold change vs veh, TAMM41 / RFU, KIAA1704 /// LOC100996395 / Fold change vs veh, KIAA1704 /// LOC100996395 / RFU, ING1 / Fold change vs veh, ING1 / RFU, TRMT61B / Fold change vs veh, TRMT61B / RFU, FUBP3 / Fold change vs veh, FUBP3 / RFU, TP53 / Fold change vs veh, TP53 / RFU, TNKS2 / Fold change vs veh, TNKS2 / RFU, ZFP14 / Fold change vs veh, ZFP14 / RFU, ACTR2 / Fold change vs veh, ACTR2 / RFU, PPP3R1 / Fold change vs veh, PPP3R1 / RFU, PIK3R1 / Fold change vs veh, PIK3R1 / RFU, HNRNPA1 / Fold change vs veh, HNRNPA1 / RFU, RNF170 / Fold change vs veh, RNF170 / RFU, ZNF28 / Fold change vs veh, ZNF28 / RFU, RNGTT / Fold change vs veh, RNGTT / RFU, OGT / Fold change vs veh, OGT / RFU, BRD1 / Fold change vs veh, BRD1 / RFU, MARS / Fold change vs veh, MARS / RFU, ZNF655 / Fold change vs veh, ZNF655 / RFU, FAHD1 / Fold change vs veh, FAHD1 / RFU, BDP1 / Fold change vs veh, BDP1 / RFU, LRRCC1 / Fold change vs veh, LRRCC1 / RFU, ARID1A / Fold change vs veh, ARID1A / RFU, ZNF146 / Fold change vs veh, ZNF146 / RFU, ZNF330 / Fold change vs veh, ZNF330 / RFU, GPN3 / Fold change vs veh, GPN3 / RFU, C9orf123 / Fold change vs veh, C9orf123 / RFU, N4BP2L2 / Fold change vs veh, N4BP2L2 / RFU, ARFIP1 / Fold change vs veh, ARFIP1 / RFU, FAM179B / Fold change vs veh, FAM179B / RFU, BCL10 / Fold change vs veh, BCL10 / RFU, UHRF1BP1L / Fold change vs veh, UHRF1BP1L / RFU, BET1 / Fold change vs veh, BET1 / RFU, CNOT2 / Fold change vs veh, CNOT2 / RFU, ZNF268 / Fold change vs veh, ZNF268 / Fold change vs veh, ZNF507 / RFU, DGCR2 / Fold change vs veh, DGCR2 / RFU, WDSUB1 / Fold change vs veh, WDSUB1 / Fold change vs veh, HSP90B1 /// MIR3652 / RFU, ADSS / Fold change vs veh, ADSS / RFU, GK / Fold change vs veh, GK / RFU, ZNF148 / Fold change vs veh, ZNF148 / RFU, TAF9 / Fold change vs veh, TAF9 / RFU, SLC1A5 / Fold change vs veh, SLC1A5 / RFU, SLMO2 / Fold change vs veh, SLMO2 / RFU, ABCC4 / Fold change vs veh, ABCC4 / RFU, LOC101060439 /// RAP1B / Fold change vs veh, LOC101060439 /// RAP1B / RFU, RFX7 / Fold change vs veh, RFX7 / RFU, GTPBP10 / Fold change vs veh, GTPBP10 / RFU, CNEP1R1 / Fold change vs veh, CNEP1R1 / RFU, BIVM-ERCC5 /// ERCC5 / Fold change vs veh, BIVM-ERCC5 /// ERCC5 / RFU, ILF3 / Fold change vs veh, ILF3 / RFU 11762660_at / Fold change /veh 11762660_at / RFU VCAN (11757783_s_at) / Fold change /veh VCAN (11757783_s_at) / RFU DDX43 (11728927_at) / Fold change /veh DDX43 (11728927_at) / RFU KRT8 (11758188_x_at) / Fold change /veh KRT8 (11758188_x_at) / RFU NKD1 (11759106_at) / Fold change /veh NKD1 (11759106_at) / RFU SRD5A1 (11742802_a_at) / Fold change /veh SRD5A1 (11742802_a_at) / RFU TPSAB1 /// TPSB2 (11721975_s_at) / Fold change /veh TPSAB1 /// TPSB2 (11721975_s_at) / RFU GSTM3 (11746129_a_at) / Fold change /veh GSTM3 (11746129_a_at) / RFU IL23R (11737362_x_at) / Fold change /veh IL23R (11737362_x_at) / RFU TMEM51 (11727254_a_at) / Fold change /veh TMEM51 (11727254_a_at) / RFU PIWIL2 (11732686_x_at) / Fold change /veh PIWIL2 (11732686_x_at) / RFU ORM1 (11744905_x_at) / Fold change /veh ORM1 (11744905_x_at) / RFU CCDC152 (11743942_at) / Fold change /veh CCDC152 (11743942_at) / RFU ECM1 (11717891_a_at) / Fold change /veh ECM1 (11717891_a_at) / RFU IL23R (11748794_a_at) / Fold change /veh IL23R (11748794_a_at) / RFU TNFAIP8L3 (11732012_x_at) / Fold change /veh TNFAIP8L3 (11732012_x_at) / RFU MBOAT4 (11741988_at) / Fold change /veh MBOAT4 (11741988_at) / RFU 11764193_at / Fold change /veh 11764193_at / RFU TMEM53 (11763286_at) / Fold change /veh TMEM53 (11763286_at) / RFU MAGEB2 (11727129_at) / Fold change /veh MAGEB2 (11727129_at) / RFU TMEM200A (11744735_a_at) / Fold change /veh TMEM200A (11744735_a_at) / RFU CCDC152 (11751479_a_at) / Fold change /veh CCDC152 (11751479_a_at) / RFU FAM211A (11726209_a_at) / Fold change /veh FAM211A (11726209_a_at) / RFU RGS16 (11746705_a_at) / Fold change /veh RGS16 (11746705_a_at) / RFU VCAN (11755009_s_at) / Fold change /veh VCAN (11755009_s_at) / RFU RHOB (11743442_s_at) / Fold change /veh RHOB (11743442_s_at) / RFU RGS16 (11720943_a_at) / Fold change /veh RGS16 (11720943_a_at) / RFU RGS16 (11720944_at) / Fold change /veh RGS16 (11720944_at) / RFU, VPS4B / Fold change vs veh, VPS4B / RFU, CREB1 / Fold change vs veh, CREB1 / RFU, DNAJC13 / Fold change vs veh, DNAJC13 / RFU, GNAQ / Fold change vs veh, GNAQ / RFU, CDK5R1 / Fold change vs veh, CDK5R1 / RFU, ZRANB3 / Fold change vs veh, ZRANB3 / RFU, CUL4A / Fold change vs veh, CUL4A / RFU, CCNY / Fold change vs veh, CCNY / RFU, UFL1 / Fold change vs veh, UFL1 / RFU, COG3 / Fold change vs veh, COG3 / RFU, DIAPH2 / Fold change vs veh, DIAPH2 / RFU, SKA2 / Fold change vs veh, SKA2 / RFU, AFF3 / Fold change vs veh, AFF3 / RFU, LMF1 / Fold change vs veh, LMF1 / RFU, IPO11 / Fold change vs veh, IPO11 / RFU, DFFB / Fold change vs veh, DFFB / RFU, FOXP1 / Fold change vs veh, FOXP1 / RFU, CARD8 / Fold change vs veh, CARD8 / RFU, STRN3 / Fold change vs veh, STRN3 / RFU, ADK / Fold change vs veh, ADK / RFU, RASSF2 / Fold change vs veh, RASSF2 / RFU, WIPF1 / Fold change vs veh, WIPF1 / RFU, LARP1B / Fold change vs veh, LARP1B / RFU, RASA1 / Fold change vs veh, RASA1 / RFU, RB1 / Fold change vs veh, RB1 / RFU, PPFIA1 / Fold change vs veh, PPFIA1 / RFU, MAT2A / Fold change vs veh, MAT2A / RFU, CCT5 / Fold change vs veh, CCT5 / RFU, WDR92 / Fold change vs veh, WDR92 / RFU, CUX1 / Fold change vs veh, CUX1 / RFU, TTC7A / Fold change vs veh, TTC7A / RFU, TMEM135 / Fold change vs veh, TMEM135 / RFU, DEPTOR / Fold change vs veh, DEPTOR / RFU, CPM / Fold change vs veh, CPM / RFU, DNAJB6 / Fold change vs veh, DNAJB6 / RFU, CACNA2D3 / Fold change vs veh, CACNA2D3 / RFU, DTX4 / Fold change vs veh, DTX4 / RFU, TFCP2 / Fold change vs veh, TFCP2 / RFU, GMCL1 /// GMCL1P1 / Fold change vs veh, GMCL1 /// GMCL1P1 / RFU, AEBP2 / Fold change vs veh, AEBP2 / RFU, SNHG1 /// SNORD22 /// SNORD25 /// SNORD26 /// SNORD27 /// SNORD28 /// SNORD29 /// SNORD31 / Fold change vs veh, SNHG1 /// SNORD22 /// SNORD25 /// SNORD26 /// SNORD27 /// SNORD28 /// SNORD29 /// SNORD31 / Fold change (Aza/veh), C12orf56 (ProbeSet 11735607_a_at) / Fold change (ACY-1035/veh), C12orf56 (ProbeSet 11735607_a_at) / Fold change (Aza/veh), FGFR1OP (ProbeSet 11751329_s_at) / Fold change (ACY-1035/veh), FGFR1OP (ProbeSet 11751329_s_at) / Fold change (Aza/veh), VPS36 (ProbeSet 11739960_a_at) / Fold change (ACY-1035/veh), VPS36 (ProbeSet 11739960_a_at) / RFU SYPL1 (11715823_x_at) / Fold change /veh SYPL1 (11715823_x_at) / RFU IGFBP7 (11715501_s_at) / Fold change /veh IGFBP7 (11715501_s_at) / RFU REEP3 (11722064_at) / Fold change /veh REEP3 (11722064_at) / RFU IGLL1 (11728026_x_at) / Fold change /veh IGLL1 (11728026_x_at): dose or concentration left out as unconfirmed
# Conditions: ProbeSet 11728314_at; LIST B
smiles,measurement,value
Nc1ccc(-c2cccs2)cc1NC(=O)c1ccc2c(c1)cc(C1CC1)n2CCN1CCOCC1 [ACY-1035],"Fold change vs veh, ZNF148",0.92
